Results reported in ChEMBL document CHEMBL3885881, “DrugMatrix”.

Species: Rattus norvegicus
Assay: DrugMatrix - Regimen: Daily Repeat
Format: toxicity, organism-based, Sprague-Dawley
Set-up: regimen Daily Repeat, gender Male, age 6-8 weeks
Settings: in vivo, po, route oral GAVAGE, vehicle 100 % WATER; for ABSOLUTE BASOPHIL / ABSOLUTE EOSINOPHIL / ABSOLUTE LYMPHOCYTE / ABSOLUTE MONOCYTE / ABSOLUTE SEGMENTED NEUTROPHIL / BASOPHIL / EOSINOPHIL / ERYTHROCYTE COUNT / HEMATOCRIT / HEMOGLOBIN / LEUKOCYTE COUNT / LYMPHOCYTE / MEAN CORPUSCULAR HEMOGLOBIN / MEAN CORPUSCULAR HEMOGLOBIN CONCENTRATION / MEAN CORPUSCULAR VOLUME / MONOCYTE / NEUTROPHIL / NUCLEATED RED BLOOD CELLS / PLATELET COUNT: tissue Blood; for ALANINE AMINOTRANSFERASE / ALBUMIN / ALKALINE PHOSPHATASE / ASPARTATE AMINOTRANSFERASE / BLOOD UREA NITROGEN / CARBON DIOXIDE / CHLORIDE / CHOLESTEROL / CREATINE PHOSPHOKINASE / CREATININE / GLUCOSE / LACTATE DEHYDROGENASE / LIPASE / PHOSPHORUS / POTASSIUM / SODIUM / TOTAL BILIRUBIN / TOTAL PROTEIN / URIC ACID: tissue Plasma
[1] = 0 mg/kg, 72 h, dose level Control, time 3 day
[2] = 0 mg/kg, 120 h, dose level Control, time 5 day
[3] = 5 mg/kg, 72 h, dose level Low, time 3 day

C[N+](C)(C)CCOC(N)=O.[Cl-] [CARBACHOL]
ABSOLUTE BASOPHIL [1]: 0 CELLS/uL
ABSOLUTE EOSINOPHIL [1]: 0 CELLS/uL
ABSOLUTE LYMPHOCYTE [1]: 8482.5 CELLS/uL
ABSOLUTE MONOCYTE [1]: 63.83 CELLS/uL
ABSOLUTE SEGMENTED NEUTROPHIL [1]: 887 CELLS/uL
BASOPHIL [1]: 0%
EOSINOPHIL [1]: 0%
ERYTHROCYTE COUNT [1]: 5.49 x10E6/uL
HEMATOCRIT [1]: 34.5%
HEMOGLOBIN [1]: 13.33 G/DL
LEUKOCYTE COUNT [1]: 9.43 x10E3/uL
LYMPHOCYTE [1]: 90.17%
MEAN CORPUSCULAR HEMOGLOBIN [1]: 24.3 pg
MEAN CORPUSCULAR HEMOGLOBIN CONCENTRATION [1]: 38.63 G/DL
MEAN CORPUSCULAR VOLUME [1]: 62.88 fL
MONOCYTE [1]: 0.67%
NEUTROPHIL [1]: 9.17%
NUCLEATED RED BLOOD CELLS [1]: 0.67 /100WBC
PLATELET COUNT [1]: 1022.83 x10E3/uL
ALANINE AMINOTRANSFERASE [1]: 50.5 u/L
ALBUMIN [1]: 4.08 G/DL
ALKALINE PHOSPHATASE [1]: 368.33 u/L
ASPARTATE AMINOTRANSFERASE [1]: 87.5 u/L
BLOOD UREA NITROGEN [1]: 12.83 mg/dL
CARBON DIOXIDE [1]: 32.83 mmol/L
CHLORIDE [1]: 99.67 MEQ/L
CHOLESTEROL [1]: 79.67 mg/dL
CREATINE PHOSPHOKINASE [1]: 585 u/L
CREATININE [1]: 0.22 mg/dL
GLUCOSE [1]: 135.67 mg/dL
LACTATE DEHYDROGENASE [1]: 171 u/L
LIPASE [1]: 9.5 u/L
PHOSPHORUS [1]: 11.18 mg/dL
POTASSIUM [1]: 6.25 MEQ/L
SODIUM [1]: 144.87 MEQ/L
TOTAL BILIRUBIN [1]: 0.2 mg/dL
TOTAL PROTEIN [1]: 6.08 G/DL
URIC ACID [1]: 0.65 mg/dL
ABSOLUTE BASOPHIL [2]: 0 CELLS/uL
ABSOLUTE EOSINOPHIL [2]: 14.5 CELLS/uL
ABSOLUTE LYMPHOCYTE [2]: 7596.17 CELLS/uL
ABSOLUTE MONOCYTE [2]: 69.67 CELLS/uL
ABSOLUTE SEGMENTED NEUTROPHIL [2]: 503 CELLS/uL
BASOPHIL [2]: 0%
EOSINOPHIL [2]: 0.17%
ERYTHROCYTE COUNT [2]: 5.49 x10E6/uL
HEMATOCRIT [2]: 34.72%
HEMOGLOBIN [2]: 13.47 G/DL
LEUKOCYTE COUNT [2]: 8.18 x10E3/uL
LYMPHOCYTE [2]: 92.17%
MEAN CORPUSCULAR HEMOGLOBIN [2]: 24.57 pg
MEAN CORPUSCULAR HEMOGLOBIN CONCENTRATION [2]: 38.82 G/DL
MEAN CORPUSCULAR VOLUME [2]: 63.3 fL
MONOCYTE [2]: 1%
NEUTROPHIL [2]: 6.67%
NUCLEATED RED BLOOD CELLS [2]: 0 /100WBC
PLATELET COUNT [2]: 1141 x10E3/uL
ALANINE AMINOTRANSFERASE [2]: 48.33 u/L
ALBUMIN [2]: 4.07 G/DL
ALKALINE PHOSPHATASE [2]: 395.67 u/L
ASPARTATE AMINOTRANSFERASE [2]: 85.67 u/L
BLOOD UREA NITROGEN [2]: 15.83 mg/dL
CARBON DIOXIDE [2]: 31.33 mmol/L
CHLORIDE [2]: 100.83 MEQ/L
CHOLESTEROL [2]: 62.33 mg/dL
CREATINE PHOSPHOKINASE [2]: 248.33 u/L
CREATININE [2]: 0.2 mg/dL
GLUCOSE [2]: 135.67 mg/dL
LACTATE DEHYDROGENASE [2]: 141.33 u/L
LIPASE [2]: 9.5 u/L
PHOSPHORUS [2]: 10.73 mg/dL
POTASSIUM [2]: 6.07 MEQ/L
SODIUM [2]: 145.35 MEQ/L
TOTAL BILIRUBIN [2]: 0.22 mg/dL
TOTAL PROTEIN [2]: 6.12 G/DL
URIC ACID [2]: 0.63 mg/dL
ABSOLUTE BASOPHIL [3]: 0 CELLS/uL
ABSOLUTE EOSINOPHIL [3]: 50.33 CELLS/uL
ABSOLUTE LYMPHOCYTE [3]: 10617 CELLS/uL
ABSOLUTE MONOCYTE [3]: 63 CELLS/uL
ABSOLUTE SEGMENTED NEUTROPHIL [3]: 603 CELLS/uL
BASOPHIL [3]: 0%
EOSINOPHIL [3]: 0.33%
ERYTHROCYTE COUNT [3]: 5.09 x10E6/uL
HEMATOCRIT [3]: 32.27%
HEMOGLOBIN [3]: 12.67 G/DL
LEUKOCYTE COUNT [3]: 11.33 x10E3/uL
LYMPHOCYTE [3]: 93.67%
MEAN CORPUSCULAR HEMOGLOBIN [3]: 24.9 pg
MEAN CORPUSCULAR HEMOGLOBIN CONCENTRATION [3]: 39.3 G/DL
MEAN CORPUSCULAR VOLUME [3]: 63.33 fL
MONOCYTE [3]: 0.67%
NEUTROPHIL [3]: 5.33%
NUCLEATED RED BLOOD CELLS [3]: 0 /100WBC
PLATELET COUNT [3]: 1098.33 x10E3/uL
ALANINE AMINOTRANSFERASE [3]: 65.67 u/L
ALBUMIN [3]: 3.93 G/DL
ALKALINE PHOSPHATASE [3]: 297.33 u/L
ASPARTATE AMINOTRANSFERASE [3]: 89.67 u/L
BLOOD UREA NITROGEN [3]: 12 mg/dL
CARBON DIOXIDE [3]: 33.67 mmol/L
CHLORIDE [3]: 98.33 MEQ/L
CHOLESTEROL [3]: 74.67 mg/dL
CREATINE PHOSPHOKINASE [3]: 369.33 u/L
CREATININE [3]: 0.19 mg/dL
GLUCOSE [3]: 134 mg/dL
LACTATE DEHYDROGENASE [3]: 123 u/L
LIPASE [3]: 11 u/L
PHOSPHORUS [3]: 11.1 mg/dL
POTASSIUM [3]: 5.93 MEQ/L
SODIUM [3]: 144.17 MEQ/L
TOTAL BILIRUBIN [3]: 0.13 mg/dL
TOTAL PROTEIN [3]: 5.83 G/DL
URIC ACID [3]: 0.53 mg/dL
